Converted amounts (≈) assume the structure as drawn. Where two headings read alike, the source gives them in different places. Where a SMILES comes first, the peptide text is derived from it.
Columns and labels:
S. typhimurium = test: microbe, parasite or virus in culture; assay type: cell-based, Salmonella typhimurium; conditions: Salmonella enterica, read-out: Minimal inhibitory concentration MIC
Procedure: (§1) For the antibacterial activity, a minimal inhibitory concentration (MIC) of a peptide in which fungus bodies were not split in an MH medium with sufficient nutrients was measured.
(§2) Specifically, the strains described in the following [Table 2] were purchased and diluted with an MH medium such that the number of bacteria was 2×10^6 colony-forming units (CFUs), 100 μl of each of the diluted strains was aliquoted into a 96-well microtiter plate, and then 100 μl of a peptide solution diluted with the MH medium (solution diluted stepwise at 2: 1) was added to each well.

S. epidermidis = test: microbe, parasite or virus in culture; assay type: cell-based, Staphylococcus epidermidis; conditions: Staphylococcus epidermidis, read-out: Minimal inhibitory concentration MIC
Procedure: as §1, §2

A. baumannii [1] = test: MIC of antibiotic during combined treatment with antimicrobial peptide; assay type: cell-based, Acinetobacter baumannii; conditions: A. baumannii
Procedure: (§3) Thereafter, the MIC value of each mixed solution was determined by diluting the antibiotic solution with the MH medium, adding 50 μl of the diluted solution to each well, and performing an experiment even under a reversed condition.

A. baumannii [2] = test: microbe, parasite or virus in culture; assay type: cell-based, Acinetobacter baumannii; conditions: for Antibiotic MIC, compound alone: no peptide; for MIC: Acinetobacter baumannii, read-out: Minimal inhibitory concentration MIC
Procedure: as §1, §2

MDRAB 12035 = test: microbe, parasite or virus in culture; assay type: cell-based, Acinetobacter baumannii; conditions: for Antibiotic MIC, compound alone: MDRAB 12035, no peptide
Procedure: as §1, §2

B. subtilis = test: microbe, parasite or virus in culture; assay type: cell-based, Bacillus subtilis; conditions: Bacillus subtilis, read-out: Minimal inhibitory concentration MIC
Procedure: as §1, §2

E. coli [3] = test: MIC of antibiotic during combined treatment with antimicrobial peptide; assay type: cell-based, Escherichia coli; conditions: E. coli
Procedure: as §3

E. coli [4] = test: microbe, parasite or virus in culture; assay type: cell-based, Escherichia coli
Procedure: as §1, §2

MDREC 1229 = test: microbe, parasite or virus in culture; assay type: cell-based, Escherichia coli; conditions: for MIC: Escherichia coli, read-out: Minimal inhibitory concentration MIC; for Antibiotic MIC, compound alone: no peptide
Procedure: as §1, §2

P. aeruginosa = test: microbe, parasite or virus in culture; assay type: cell-based, Pseudomonas aeruginosa; conditions: Pseudomonas aeruginosa, read-out: Minimal inhibitory concentration MIC
Procedure: as §1, §2

A. baumannii [5] = test: MIC of antimicrobial peptide during combined treatment with antibiotic; assay type: cell-based, Acinetobacter baumannii
Procedure: Specifically, the strains described in [Table 2] were prepared and diluted with an MH medium such that the number of bacteria was 2×10^6 colony-forming units (CFUs) per 1 ml, 100 μl of the diluted strains was each aliquoted into a 96-well microtiter plate, and then 50 μl of a peptide solution diluted with the MH medium from the MIC value (solution diluted stepwise at 2: 1) was added to each well. Thereafter, the MIC value of each mixed solution was determined by diluting the antibiotic solution with the MH medium, adding 50 μl of the diluted solution to each well, and performing an experiment even under a reversed condition.

S. aureus = test: microbe, parasite or virus in culture; assay type: cell-based, Staphylococcus aureus; conditions: Staphylococcus aureus, read-out: Minimal inhibitory concentration MIC
Procedure: as §1, §2

[6] = with Papiliocin 1 μg/ml (Conc./MIC 1/8)
[7] = with Papiliocin 2 μg/ml (Conc./MIC 1/4)
[8] = with Papiliocin 4 μg/ml (Conc./MIC 1/2)
[9] = with Papiliocin 8 μg/ml (Conc./MIC 1)
[10] = with PapMA-1 at 16 μg/ml (1/4 of peptide MIC)
[11] = with PapMA-2 at 16 μg/ml (1/4 of peptide MIC)
[12] = E. coli, compound alone (no peptide)

Structure (SMILES): CC[C@H]1OC(=O)[C@H](C)[C@@H](O[C@H]2C[C@@](C)(OC)[C@@H](O)[C@H](C)O2)[C@H](C)[C@@H](O[C@@H]2O[C@H](C)C[C@H](N(C)C)[C@H]2O)[C@](C)(O)C[C@@H](C)C(=O)[C@H](C)[C@@H](O)[C@]1(C)O [Erythromycin, erythromycin, reference compound]
- MIC (S. typhimurium; S. typhimurium, agent alone): 64 µg/mL (≈ 87.2 µM)
- MIC (S. epidermidis; S. epidermidis, agent alone): 1 µg/mL (≈ 1.36 µM)
- MIC of antibiotic administered in combination with peptide (A. baumannii [1]; with PapMA-1 at 8 μg/ml): 0.5 µg/mL
- MIC of antibiotic in combination as fraction of the MIC of the antibiotic alone (A. baumannii [1]; with PapMA-1 at 8 μg/ml): 1/64
- MIC Concentration of antibiotic (A. baumannii [1]; [6]): 32 µg/mL
- MIC Concentration of antibiotic (A. baumannii [1]; [7]): 16 µg/mL
- MIC Concentration of antibiotic (A. baumannii [1]; [8]): 16 µg/mL
- MIC Concentration of antibiotic (A. baumannii [1]; [9]): 0 µg/mL
- Antibiotic MIC, compound alone (A. baumannii [2]; A. baumannii): 32 µg/mL
- MIC (A. baumannii [2]; A. baumannii, agent alone): 32 µg/mL (≈ 43.6 µM)
- Antibiotic MIC, compound alone (MDRAB 12035): 32 µg/mL
- MIC (B. subtilis; B. subtilis, agent alone): 0.25 µg/mL (≈ 0.341 µM)
- MIC of antibiotic in mixture as fraction of the MIC of the antibiotic alone (E. coli [3]; with PapMA-1 at 16 μg/ml): 1/64
- MIC value of antibiotic mixed with peptide (E. coli [3]; [10]): 2 µg/mL
- MIC value of antibiotic mixed with peptide (E. coli [3]; [11]): 0.5 µg/mL
- MIC of antibiotic in mixture as fraction of the MIC of the antibiotic alone (E. coli [3]; with PapMA-7 at 16 μg/ml): 1/512
- MIC Concentration of antibiotic (E. coli [3]; [6]): 64 µg/mL
- MIC Concentration of antibiotic (E. coli [3]; [7]): 64 µg/mL
- MIC Concentration of antibiotic (E. coli [3]; [8]): 64 µg/mL
- MIC Concentration of antibiotic (E. coli [3]; [9]): 0 µg/mL

Structure (SMILES): CC(=O)NC[C@H]1CN(c2ccc(N3CCOCC3)c(F)c2)C(=O)O1 [Linezolid, linezolid, reference compound]
- MIC (S. typhimurium; S. typhimurium, agent alone): 256 µg/mL (≈ 759 µM)
- MIC (S. epidermidis; S. epidermidis, agent alone): 1 µg/mL (≈ 2.96 µM)
- MIC of antibiotic administered in combination with peptide (A. baumannii [1]; with PapMA-1 at 8 μg/ml): 8 µg/mL
- MIC of antibiotic in combination as fraction of the MIC of the antibiotic alone (A. baumannii [1]; with PapMA-1 at 8 μg/ml): 1/32
- MIC of antibiotic administered in combination with peptide (A. baumannii [1]; with PapMA-7 at 8 μg/ml): 1 µg/mL
- MIC of antibiotic in combination as fraction of the MIC of the antibiotic alone (A. baumannii [1]; with PapMA-7 at 8 μg/ml): 1/256
- MIC Concentration of antibiotic (A. baumannii [1]; [6]): 128 µg/mL
- MIC Concentration of antibiotic (A. baumannii [1]; [7]): 64 µg/mL
- MIC Concentration of antibiotic (A. baumannii [1]; [8]): 64 µg/mL
- MIC Concentration of antibiotic (A. baumannii [1]; [9]): 0 µg/mL
- Antibiotic MIC, compound alone (A. baumannii [2]; A. baumannii): 256 µg/mL
- Antibiotic MIC, compound alone (MDRAB 12035): 512 µg/mL
- Antibiotic MIC, Linezolid (E. coli [4]; [12]): 256 µg/mL
- MIC (MDREC 1229; MDREC 1229, agent alone): 512 µg/mL (≈ 1520 µM)
- Antibiotic MIC, compound alone (MDREC 1229; MDREC 1229): 512 µg/mL
- MIC (P. aeruginosa; P. aeruginosa, agent alone): > 1020 µg/mL
- MIC (B. subtilis; B. subtilis, agent alone): 1 µg/mL (≈ 2.96 µM)
- MIC of antibiotic in mixture as fraction of the MIC of the antibiotic alone (E. coli [3]; with PapMA-1 at 16 μg/ml): 1/16
- MIC value of antibiotic mixed with peptide (E. coli [3]; [10]): 16 µg/mL
- MIC of antibiotic in mixture as fraction of the MIC of the antibiotic alone (E. coli [3]; with PapMA-2 at 16 μg/ml): 1/32
- MIC value of antibiotic mixed with peptide (E. coli [3]; [11]): 8 µg/mL
- MIC of antibiotic in mixture as fraction of the MIC of the antibiotic alone (E. coli [3]; with PapMA-7 at 16 μg/ml): 1/256
- MIC value of antibiotic mixed with peptide (E. coli [3]; with PapMA-7 at 16 μg/ml (1/2 of peptide MIC)): 1 µg/mL
- MIC Concentration of antibiotic (E. coli [3]; [6]): 128 µg/mL
- MIC Concentration of antibiotic (E. coli [3]; [7]): 128 µg/mL
- MIC Concentration of antibiotic (E. coli [3]; [8]): 128 µg/mL
- MIC Concentration of antibiotic (E. coli [3]; [9]): 0 µg/mL

Structure (SMILES): CC[C@H](C)[C@H](NC(=O)[C@H](CCCCN)NC(=O)[C@H](Cc1c[nH]c2ccccc12)NC(=O)[C@@H](N)CCCNC(=N)N)C(=O)N[C@@H](Cc1ccccc1)C(=O)N[C@@H](CCCCN)C(=O)N[C@@H](CCCCN)C(=O)N[C@H](C(=O)N1CCC[C@H]1C(=O)N[C@@H](CCCCN)C(=O)N[C@@H](CC(C)C)C(=O)N[C@@H](CC(C)C)C(=O)N[C@@H](Cc1c[nH]cn1)C(=O)N[C@@H](CCC(=O)O)C(=O)N[C@@H](Cc1ccccc1)C(=O)N[C@@H](CCCCN)C(=O)N[C@@H](CCCCN)C(=O)N[C@@H](Cc1ccccc1)C(N)=O)[C@@H](C)CC [Pap-MA-12] (H-RWKIFKKIPKLLHEFKKF-NH2; N-terminus assumed)
- Peptide MIC during treatment with antibiotic (A. baumannii [5]; erythromycin 4 μg/ml (Conc./MIC 1/8)): 4 µg/mL
- Peptide MIC during treatment with antibiotic (A. baumannii [5]; erythromycin 8 μg/ml (Conc./MIC 1/4)): 2 µg/mL
- Peptide MIC during treatment with antibiotic (A. baumannii [5]; erythromycin 16 μg/ml (Conc./MIC 1/2)): 1 µg/mL
- Peptide MIC during treatment with antibiotic (A. baumannii [5]; erythromycin 32 μg/ml (Conc./MIC 1)): 0 µg/mL
- Peptide MIC during treatment with antibiotic (A. baumannii [5]; linezolid 32 μg/ml (Conc./MIC 1/8)): 2 µg/mL
- Peptide MIC during treatment with antibiotic (A. baumannii [5]; linezolid 64 μg/ml (Conc./MIC 1/4)): 2 µg/mL
- Peptide MIC during treatment with antibiotic (A. baumannii [5]; linezolid […] (Conc./MIC 1)): 0 µg/mL
- Peptide MIC during treatment with antibiotic (A. baumannii [5]; linezolid […] (Conc./MIC 1/2)): 1 µg/mL
- Peptide MIC during treatment with antibiotic (A. baumannii [5]; vancomycin 512 μg/ml (Conc./MIC 1/2)): 0.25 µg/mL
- Peptide MIC during treatment with antibiotic (A. baumannii [5]; vancomycin 1024 μg/ml (Conc./MIC 1)): 0 µg/mL
- Peptide MIC during treatment with antibiotic (A. baumannii [5]; vancomycin […] (Conc./MIC 1/4)): 0.25 µg/mL
- Peptide MIC during treatment with antibiotic (A. baumannii [5]; vancomycin […] (Conc./MIC 1/8)): 2 µg/mL
- Peptide MIC, peptide alone (A. baumannii [2]): 8 µg/mL

Structure (SMILES): CN[C@H](CC(C)C)C(=O)N[C@H]1C(=O)N[C@@H](CC(N)=O)C(=O)N[C@H]2C(=O)N[C@H]3C(=O)N[C@H](C(=O)N[C@H](C(=O)O)c4cc(O)cc(O)c4-c4cc3ccc4O)[C@H](O)c3ccc(c(Cl)c3)Oc3cc2cc(c3O[C@@H]2O[C@H](CO)[C@@H](O)[C@H](O)[C@H]2O[C@H]2C[C@](C)(N)[C@H](O)[C@H](C)O2)Oc2ccc(cc2Cl)[C@H]1O [Vancomycin, vancomycin, reference compound]
- MIC (S. aureus): 1 µg/mL (≈ 0.69 µM)
- MIC (S. typhimurium; TYPHIMURIUM): 512 µg/mL (≈ 353 µM)
- MIC (S. epidermidis): 1 µg/mL (≈ 0.69 µM)
- MIC of antibiotic administered in combination with peptide (A. baumannii [1]; with PapMA-7 at 8 μg/ml): 2 µg/mL
- MIC of antibiotic in combination as fraction of the MIC of the antibiotic alone (A. baumannii [1]; with PapMA-7 at 8 μg/ml): 1/512
- MIC Concentration of antibiotic (A. baumannii [1]; [6]): 512 µg/mL
- MIC Concentration of antibiotic (A. baumannii [1]; [7]): 256 µg/mL
- MIC Concentration of antibiotic (A. baumannii [1]; [8]): 256 µg/mL
- MIC Concentration of antibiotic (A. baumannii [1]; [9]): 0 µg/mL
- Antibiotic MIC, compound alone (A. baumannii [2]; A. baumannii): 1024 µg/mL
- MIC (A. baumannii [2]): 1020 µg/mL (≈ 707 µM)
- MIC (MDRAB 12035; Acinetobacter baumannii, read-out: Minimal inhibitory concentration MIC): > 1020 µg/mL
- Antibiotic MIC, compound alone (MDRAB 12035): >1024 µg/mL
- Antibiotic MIC, Vancomycin (E. coli [4]; [12]): 1024 µg/mL
- MIC (E. coli [4]; Escherichia coli, 16 h, read-out: Minimal inhibitory concentration MIC): 1020 µg/mL (≈ 707 µM)
- MIC (MDREC 1229): > 1020 µg/mL
- Antibiotic MIC, compound alone (MDREC 1229; MDREC 1229): >1024 µg/mL
- MIC (P. aeruginosa): > 1020 µg/mL
- MIC (B. subtilis): 1 µg/mL (≈ 0.69 µM)
- MIC Concentration of antibiotic (E. coli [3]; [6]): 512 µg/mL
- MIC Concentration of antibiotic (E. coli [3]; [7]): 256 µg/mL
- MIC Concentration of antibiotic (E. coli [3]; [8]): 256 µg/mL
- MIC Concentration of antibiotic (E. coli [3]; [9]): 0 µg/mL

— patent US11214594B2, “Antimicrobial peptide having synergistic antibacterial effect with antibiotics on multidrug resistant bacteria, and use thereof” (priority 2016, dated 2022)
